Key:
hNav1.7 [1] = target: T1, hNav1.7 (Homo sapiens (Human), UniProt Q15858); assay: Tritiated compound binding to membranes from cells heterologously expressing hNav1.7 and the β1 subunit (LBA); conditions: competitive binding vs [3H]compound, membranes with hNav1.7 and β1 subunit; read-out: Nav1.7 LBA EVO IC50
Protocol: Example 39A. Tritiated Compound Binding to Membranes Isolated from Cells that Heterologously Express hNav1.7 and the β1 Subunit
Preparation of membranes containing recombinantly expressed sodium channels: Frozen recombinant cell pellets were thawed on ice and diluted to 4 times the cell pellet weight with ice cold 50 mM Tris HCl, pH 7.4 buffer. The cell suspensions were homogenized on ice using a motorized glass dounce homogeniser. Homogenates were further diluted 8.4 times with ice cold 50 mM Tris HCl, pH 7.4 buffer and then centrifuged at 200×g at 4° C. for 15 min. The supernatants were collected and centrifuged at 10000×g at 4° C. for 50 min. The pellets were then re-suspended in 100 mM NaCl, 20 mM Tris HCl, pH 7.4 buffer containing 1% v/v protease inhibitors (Calbiochem) and re-homogenized on ice. The homogenized membranes were then processed through a syringe equipped with a 26 gauge needle. Protein concentrations were determined by Bradford Assay and the membranes were stored at −80° C.
Saturation experiments. A competitive NaV1.7 inhibitor having a methyl group was tritiated. Three tritiums were incorporated in place of methyl hydrogens to generate [^3H]compound. Binding of this radioligand was performed in 5 mL borosilicate glass test tubes at room temperature. Binding was initiated by adding membranes to increasing concentrations of [^3H]compound in 100 mM NaCl, 20 mM Tris HCl, pH 7.4 buffer containing 0.01% w/v bovine serum albumin (BSA) for 18 h. Non-specific binding was determined in the presence of 1 μM unlabeled compound. After 18 h, the reactants were filtered through GF/C glass fiber filters presoaked in 0.5% w/v polyethylene imine. Filters were washed with 15 mL ice cold 100 mM NaCl, 20 mM Tris HCl, pH7.4 buffer containing 0.25% BSA to separate bound from free ligand. [^3H]compound bound to filters was quantified by liquid scintillation counting.
Binding reactions were performed in 96-well polypropylene plates at room temperature for 18 h. In 360 μL, membranes were incubated with 100 pM [^3H]compound and increasing concentrations of Test Compound. Non-specific binding was defined in the presence of 1 μM unlabeled compound. Reactions were transferred and filtered through 96-well glass fiber/C filter plates presoaked with 0.5% polyethylene imine. The filtered reactions were washed 5 times with 200 μL ice cold buffer containing 0.25% BSA. Bound radioactivity was determined by liquid scintillation counting.
For saturation experiments, non-specific binding was subtracted from total binding to provide specific binding and these values were recalculated in terms of pmol ligand bound per mg protein. Saturation curves were constructed and dissociation constants were calculated using the single site ligand binding model: Beq=(Bmax*X)/(X+Kd), where Beq is the amount of ligand bound at equilibrium, Bmax is the maximum receptor density, Kd is the dissociation constant for the ligand, and X is the free ligand concentration. For competition studies percent inhibition was determined and IC50 values were calculated using a 4 parameter logistic model (% inhibition=(A+((B−A)/(1+((x/C)^D)))) using XLfit, where A and B are the maximal and minimum inhibition respectively, C is the IC50 concentration and D is the (Hill) slope.
Example 39B. Tritiated Compound Binding to Membranes Isolated from Cells that Heterologous Express hNav1.7 and the β1 Subunit
Following the procedure described in Example 39A, and making modifications as required to: centrifuge supernatants at 100000×g instead of 10000×g; re-suspend pellets in a buffer containing 0.01% BSA in addition to 100 mM NaCl, 20 mM Tris HCl, pH 7.4 buffer, and 1% v/v […]; and storing membranes at −80° C. in single use aliquots instead of pooled.
Saturation experiments: Following the procedure described in Example 243A, and making modifications as required to incubate [3H]compound for 3 hours instead of 18 hours. […]

hNav1.7 [2] = target: T1, hNav1.7; assay: Electrophysiological assay (EP), voltage clamp on Syncropatch 384PE; type: cell-based; conditions: CHO cells expressing Nav1.7, holding potential −50 mV, 7.5 min compound incubation; read-out: EP_SP hNav1.7 EVO IC50
Text: Example 39C. Electrophysiological Assay (EP) (In Vitro Assay)
Patch voltage clamp electrophysiology allows for the direct measurement and quantification of block of voltage-gated sodium channels (NaV's), and allows the determination of the time- and voltage-dependence of block which has been interpreted as differential binding to the resting, open, and inactivated states of the sodium channel (Hille, B., Journal of General Physiology (1977), 69: 497-515).
The following voltage clamp electrophysiology studies were performed on representative compounds using cells heterologously expressing Nav1.7 or Nav1.5 channels. cDNAs for Nav1.7 (NM_002977) and Nav1.5 (AC137587) were stably expressed in Chinese Hamstr Ovary (CHO) cells and CHL (Chinese Hamster Lung) cells respectively. Sodium currents were measured in the whole-cell configuration using Syncropatch 384PE (Nanlon Technologies, Germany). 1NPC®-384 chips with custom medium resistance and single hole mode are used. Internal solution consists of (in mM): 110 […], 10 CsCl, 20 EGTA, and 10 Hepes (pH adjusted to 7.2); and external solution contains (in mM): 60 NMDG, 80 NaCl, 4 KCl, 1 MgCl2, 2 CaCl2, 2 D-Glucose monohydrate, 10 Hepes (pH adjusted to 7.4 with NaOH).
After system flushing, testing compounds are dissolved in external solution containing 0.1% Pluronic F-127. The chip is moved into the measuring head and the instrument primes the chip with external and internal solutions. 10 l cells are added to the chip from a cell hotel, and a negative pressure of −50 mBar is applied to form a seal. Following treatment with seal enhancer solution and wash-off with external solution, negative pressure of −250 mbar is applied for 1 second to achieve the whole-cell configuration, followed by three washing steps in external solution. 20 µl of compounds is added to 40 µl in each well (1:3 dilution of compounds), and after mixing, 20 l is removed so the volume is retained at 40 ul. After approximately 13 minutes recordings, 20 µl/well of 2 uM TTX, or 333 uM Tetracaine (for Nav1.5) is added to achieve full block.
For voltage protocol, an holding potential of −50 mV is applied during the whole experiment. A depolarizing step is applied to −10 mV for 10 ms, followed by a hyperpolarization step to −150 mV for 20 ms to allow channel recovery from inactivation. A second depolarizing step is applied from −150 mV to −10 mV for 10 ms, where currents were measured to derive blocking effects of compounds. Inhibition is determined based on 7.5 min of compound incubation.

Q: Which IC50 (hNav1.7 [1]) does the source give for `COc1cc(-c2cccc(C(F)(F)F)c2F)c(F)cc1N1C(=O)CO[C@H]2CN(S(=O)(=O)Nc3ccon3)CC[C@@H]21` [Example 12, (4aS,8aS)-1-(2,2′-difluoro-5-methoxy-3′-(trifluoromethyl)-[1,1′-biphenyl]-4-yl)-N-(isoxazol-3-yl)-2-oxohexahydro-1H-pyrido[3,4-b][1,4]oxazine-6(7H)-sulfonamide] here?
A: Its IC50 is 131 nM.

Q: What about the IC50 (hNav1.7 [2]) of the same compound?
A: Its IC50 is 6.83 nM.

Q: `COc1cc(-c2cccc(Cl)c2)c(F)cc1N1C(=O)CO[C@@H]2CN(S(=O)(=O)Nc3ccon3)CC[C@H]21` [Example 13, (4aR,8aR)-1-(3′-chloro-2-fluoro-5-methoxy-[1,1′-biphenyl]-4-yl)-N-(isoxazol-3-yl)-2-oxohexahydro-1H-pyrido[3,4-b][1,4]oxazine-6(7H)-sulfonamide] was tested. Which IC50 (hNav1.7 [1]) did it give?
A: Its IC50 is 471 nM.

Q: What about the IC50 (hNav1.7 [2]) of the same compound?
A: Its IC50 is 11.7 nM.

Q: How did the IC50 (hNav1.7 [1]) turn out when `COc1cc(-c2cccc(Cl)c2)c(F)cc1N1C(=O)CO[C@H]2CN(S(=O)(=O)Nc3ccon3)CC[C@@H]21` [Example 14, (4aS,8aS)-1-(3′-chloro-2-fluoro-5-methoxy-[1,1′-biphenyl]-4-yl)-N-(isoxazol-3-yl)-2-oxohexahydro-1H-pyrido[3,4-b][1,4]oxazine-6(7H)-sulfonamide] was run?
A: Its IC50 is 332 nM.

Q: And the IC50 (hNav1.7 [2])?
A: Its IC50 is 7.21 nM.

Q: What does the source list for `COc1cc(-c2cccc(C(F)F)c2)c(F)cc1N1C(=O)CO[C@@H]2CN(S(=O)(=O)Nc3ccon3)CC[C@H]21` [Example 15, (4aR,8aR)-1-(3′-(difluoromethyl)-2-fluoro-5-methoxy-[1,1′-biphenyl]-4-yl)-N-(isoxazol-3-yl)-2-oxohexahydro-1H-pyrido[3,4-b][1,4]oxazine-6(7H)-sulfonamide]?
A: IC50 (hNav1.7 [1]): 2000 nM; IC50 (hNav1.7 [2]): 46.7 nM

Q: Which results are given for `COc1cc(-c2cccc(C(F)F)c2)c(F)cc1N1C(=O)CO[C@H]2CN(S(=O)(=O)Nc3ccon3)CC[C@@H]21` [Example 16, (4aS,8aS)-1-(3′-(difluoromethyl)-2-fluoro-5-methoxy-[1,1′-biphenyl]-4-yl)-N-(isoxazol-3-yl)-2-oxohexahydro-1H-pyrido[3,4-b][1,4]oxazine-6(7H)-sulfonamide]?
A: IC50 (hNav1.7 [1]): 1390 nM; IC50 (hNav1.7 [2]): 49.5 nM

Q: Which IC50 (hNav1.7 [1]) does the source give for `COc1cc(-c2cccc(C(F)(F)F)c2)ccc1N1C(=O)CO[C@@H]2CN(S(=O)(=O)Nc3ccon3)CC[C@H]21` [Example 17, (4aR,8aR)-N-(isoxazol-3-yl)-1-(3-methoxy-3′-(trifluoromethyl)-[1,1′-biphenyl]-4-yl)-2-oxohexahydro-1H-pyrido[3,4-b][1,4]oxazine-6(7H)-sulfonamide] here?
A: The IC50 was 214 nM.

Q: What about the IC50 (hNav1.7 [2]) of the same compound?
A: Its IC50 is 6.03 nM.

Q: Which IC50 (hNav1.7 [1]) does the source give for `COc1cc(-c2cccc(C(F)(F)F)c2)ccc1N1C(=O)CO[C@H]2CN(S(=O)(=O)Nc3ccon3)CC[C@@H]21` [Example 18, (4aS,8aS)-N-(isoxazol-3-yl)-1-(3-methoxy-3′-(trifluoromethyl)-[1,1′-biphenyl]-4-yl)-2-oxohexahydro-1H-pyrido[3,4-b][1,4]oxazine-6(7H)-sulfonamide] here?
A: The IC50 was 346 nM.

Q: What about the IC50 (hNav1.7 [2]) of the same compound?
A: The IC50 was 5.86 nM.

Q: What does the source list for `COc1cc(-c2cccc(C(F)(F)F)c2)cc(F)c1N1C(=O)CO[C@@H]2CN(S(=O)(=O)Nc3ccon3)CC[C@H]21` [Example 19, (4aR,8aR)-1-(3-fluoro-5-methoxy-3′-(trifluoromethyl)-[1,1′-biphenyl]-4-yl)-N-(isoxazol-3-yl)-2-oxohexahydro-1H-pyrido[3,4-b][1,4]oxazine-6(7H)-sulfonamide]?
A: IC50 (hNav1.7 [1]): 831 nM; IC50 (hNav1.7 [2]): 50 nM

Q: Which results are given for `COc1cc(-c2cccc(C(F)(F)F)c2)cc(F)c1N1C(=O)CO[C@H]2CN(S(=O)(=O)Nc3ccon3)CC[C@@H]21` [Example 20, (4aS,8aS)-1-(3-fluoro-5-methoxy-3′-(trifluoromethyl)-[1,1′-biphenyl]-4-yl)-N-(isoxazol-3-yl)-2-oxohexahydro-1H-pyrido[3,4-b][1,4]oxazine-6(7H)-sulfonamidede]?
A: IC50 (hNav1.7 [1]): 2000 nM; IC50 (hNav1.7 [2]): 39.8 nM

Q: `COc1nc(-c2cccc(C(F)(F)F)c2)c(F)cc1N1C(=O)CO[C@@H]2CN(S(=O)(=O)Nc3ccon3)CC[C@H]21` [Example 21, (4aR,8aR)-1-(5-fluoro-2-methoxy-6-(3-(trifluoromethyl)phenyl)pyridin-3-yl)-N-(isoxazol-3-yl)-2-oxohexahydro-1H-pyrido[3,4-b][1,4]oxazine-6(7H)-sulfonamide] was tested. Which IC50 (hNav1.7 [1]) did it give?
A: The IC50 was 2000 nM.

Q: And the IC50 (hNav1.7 [2])?
A: Its IC50 is 47.5 nM.

Q: With `COc1nc(-c2cccc(C(F)(F)F)c2)c(F)cc1N1C(=O)CO[C@H]2CN(S(=O)(=O)Nc3ccon3)CC[C@@H]21` [Example 22, (4aS,8aS)-1-(5-fluoro-2-methoxy-6-(3-(trifluoromethyl)phenyl)pyridin-3-yl)-N-(isoxazol-3-yl)-2-oxohexahydro-1H-pyrido[3,4-b][1,4]oxazine-6(7H)-sulfonamide] as the compound, how does the IC50 (hNav1.7 [1]) read?
A: The IC50 was 907 nM.

Q: What about the IC50 (hNav1.7 [2]) of the same compound?
A: The IC50 was 66.8 nM.

Q: `N#Cc1cc(-c2cccc(C(F)(F)F)c2)c(F)cc1N1C(=O)CO[C@@H]2CN(S(=O)(=O)Nc3ccon3)CC[C@H]21` [Example 23, (4aR,8aR)-1-(5-cyano-2-fluoro-3′-(trifluoromethyl)-[1,1′-biphenyl]-4-yl)-N-(isoxazol-3-yl)-2-oxohexahydro-1H-pyrido[3,4-b][1,4]oxazine-6(7H)-sulfonamide] was tested. Which IC50 (hNav1.7 [1]) did it give?
A: The IC50 was 2000 nM.

Q: What about the IC50 (hNav1.7 [2]) of the same compound?
A: Its IC50 is 50.1 nM.

Q: `N#Cc1cc(-c2cccc(C(F)(F)F)c2)c(F)cc1N1C(=O)CO[C@H]2CN(S(=O)(=O)Nc3ccon3)CC[C@@H]21` [Example 24, (4aS,8aS)-1-(5-cyano-2-fluoro-3′-(trifluoromethyl)-[1,1′-biphenyl]-4-yl)-N-(isoxazol-3-yl)-2-oxohexahydro-1H-pyrido[3,4-b][1,4]oxazine-6(7H)-sulfonamide] was tested. Which IC50 (hNav1.7 [1]) did it give?
A: Its IC50 is 2000 nM.

Q: What about the IC50 (hNav1.7 [2]) of the same compound?
A: The IC50 was 237 nM.

— patent publication US10947251B2, “Therapeutic compounds and methods of use thereof” (GENENTECH, INC., priority 2018, dated 2021)
